# Measured values reported in PMC9452538, “The antimicrobial peptide LI14 combats multidrug-resistant bacterial infections” (Communications Biology, 2022).
# Like-named read-outs stand apart in the source and are kept apart here. Bridge positions count the residues as written; N and C are the ends. Peptide text beside a SMILES is read from it.
# Experiments:
# S. aureus ATCC 29213 = assay: microbe, parasite or virus in culture; assay type: cell-based, Staphylococcus aureus; parameters: Antibacterial activity of LI14 derivates: unit not given here
# Procedure: (§1) An antimicrobial activity study was conducted on all peptides against a panel of laboratory bacteria, including ATCC source and clinical isolates with resistance determinants. According to CLSI2021 guidelines, we tested the minimum inhibitory concentrations (MICs) of peptides using standard broth micro-dilutions. Briefly, bacteria grown to exponential phase were diluted in 1:1000 to MHB, subsequently, equivalent amounts of bacterial suspension (1.5 × 10^6 CFUs/mL) were mixed with different concentrations of peptides in a sterilized 96-well microtiter plate (Corning).
# MRSA T144 [1] = assay: microbe, parasite or virus in culture; assay type: cell-based, Staphylococcus aureus; parameters: Antibacterial activity of LI14 derivates: unit not given here
# Procedure: as §1
# MRSA T144 [2] = assay type: cell-based, Staphylococcus aureus
# Procedure: (§2) MRSA T144 and E. coli B2 in the exponential growth phase were incubated with LI14 peptide supplemented with 10 mM Na^+, K^+, Mg^2+, 10% Dulbecco’s modified Eagle medium (DMEM), and 10% fetal bovine serum (FBS) for 16–18 h. The stability of LI14 was evaluated by the change of its antibacterial activity under different conditions.
# (§3) LI14 were preincubated for 1 h at various temperatures (40–121 °C), pH (2–12), and proteases (pepsin, trypsin, and papain, final concentration 1 mg/mL). […] Following the incubation with the proteases, the leftover protease was precipitated with acetonitrile and removed by centrifugation at 3000 × g, followed by a MIC test.
# (§4) Supplementary Table 4 Thermal, pH, salts and protease stability of AMPs against
# (§5) MRSA T144 and E. coli B2 (MIC, μg/mL).
# (§6) Treatment MRSA T144 E. coli B2
# [3] = test system: E. coli B2 (blaNDM-5 + mcr-1); assay: microbe, parasite or virus in culture; assay type: cell-based, Escherichia coli; parameters: Antibacterial activity of LI14 derivates: unit not given here
# Procedure: as §1
# E. coli ATCC 25922 = assay: microbe, parasite or virus in culture; assay type: cell-based, Escherichia coli; parameters: Antibacterial activity of LI14 derivates: unit not given here
# Procedure: as §1
# E. coli B2 = assay type: cell-based, Escherichia coli
# Procedure: as §2, §3, §4, §5, §6
# [4] = test system: P. cibarius HNCF44W (blaNDM-1 + tet(X6)); assay: organism not typed; assay type: cell-based
# Procedure: as §1
# [5] = test system: A. baumannii C222 (tet(X6)); assay: microbe, parasite or virus in culture; assay type: cell-based, Acinetobacter baumannii
# Procedure: as §1
# A. baumannii ATCC 19609 = assay: microbe, parasite or virus in culture; assay type: cell-based, Acinetobacter baumannii
# Procedure: as §1
# E. faecium 5F-10 = assay: microbe, parasite or virus in culture; assay type: cell-based, Enterococcus faecium
# Procedure: as §1
# [6] = test system: K. pneumoniae D120 (mcr-8); assay: microbe, parasite or virus in culture; assay type: cell-based, Klebsiella pneumoniae
# Procedure: as §1
# [7] = test system: K. pneumoniae ATCC 700603; assay: microbe, parasite or virus in culture; assay type: cell-based, Klebsiella pneumoniae
# Procedure: as §1
# P. aeruginosa PA14 = assay: microbe, parasite or virus in culture; assay type: cell-based, Pseudomonas aeruginosa
# Procedure: as §1
# MRSA 1518 = assay: microbe, parasite or virus in culture; assay type: cell-based, Staphylococcus aureus
# Procedure: as §1
# MRSA 1530 = assay: microbe, parasite or virus in culture; assay type: cell-based, Staphylococcus aureus
# Procedure: as §1
# [8] = test system: S. enteritidis ATCC 13076; assay: microbe, parasite or virus in culture; assay type: cell-based
# Procedure: as §1
# [9] = test system: E. faecalis A4 (VRE, VanA); assay: microbe, parasite or virus in culture; assay type: cell-based
# Procedure: as §1
# E. faecalis 1F-1 = assay: microbe, parasite or virus in culture; assay type: cell-based
# Procedure: as §1
# E. coli G92 (mcr-1) = assay: microbe, parasite or virus in culture; assay type: cell-based, Escherichia coli
# Procedure: as §1
# E. coli G6 (blaNDM-5) = assay: microbe, parasite or virus in culture; assay type: cell-based, Escherichia coli
# Procedure: as §1
# E. coli 1F28 (tet(X4)) = assay: microbe, parasite or virus in culture; assay type: cell-based, Escherichia coli
# Procedure: as §1
# E. coli CP131 (mcr-3) = assay: microbe, parasite or virus in culture; assay type: cell-based, Escherichia coli
# Procedure: as §1
# E. coli C3 (blaNDM-1) = assay: microbe, parasite or virus in culture; assay type: cell-based, Escherichia coli
# Procedure: as §1
# E. coli B3-1 (tet(X4)) = assay: microbe, parasite or virus in culture; assay type: cell-based, Escherichia coli
# Procedure: as §1
# MDR E. coli B2 = assay: Checkerboard assay with LI14; assay type: cell-based, Escherichia coli
# Procedure: Through checkerboard assay using two-fold serially diluted drugs (8 × 8 matrix), we evaluated the synergistic effects of LI14 with different mechanisms of antibiotics. The absorbance of cultures at 600 nm was determined by a Microplate reader after 18 h of incubation with (1.5 × 10^6 CFUs/mL) bacterial suspension. The FIC index (FICI) was calculated by performing two biological replicates for each combination. The formula is as follows: FIC index = FICIa + FICIb = MICab/MICa + MICba/Mb. An FIC index of ≤0.5 indicates synergy.
# a/bMICs of antibiotics in the absence or presence of ¼ MIC of LI14.
# cDegree of antibiotics potentiation in the presence of ¼ MIC of LI14.
# –, none of potentiation activity.
# S. aureus G16 (RIF^R) = assay: MIC broth microdilution; assay type: cell-based, Staphylococcus aureus; conditions: S. aureus G16 (RIF^R); MHB, 16-18 h, 37 °C
# Procedure: as §1
# [10] = test system: S. aureus 215 (cfr + LZD^R); assay: MIC broth microdilution; assay type: cell-based, Staphylococcus aureus; conditions: S. aureus 215 (cfr + LZD^R); MHB, 16-18 h, 37 °C
# Procedure: as §1
# E. coli DH5α (PUC19) = assay: MIC broth microdilution; assay type: cell-based, Escherichia coli; conditions: engineered E. coli DH5α (PUC19); MHB, 16-18 h, 37 °C
# Procedure: as §1
# [11] = test system: E. coli DH5α (PUC19-mcr-1); assay: MIC broth microdilution; assay type: cell-based, Escherichia coli; conditions: engineered E. coli DH5α (PUC19-mcr-1); MHB, 16-18 h, 37 °C
# Procedure: as §1
compound,measurement,setting,value
CC[C@H](C)[C@H](NC(=O)[C@H](CCCNC(=N)N)NC(=O)[C@@H]1CSSC[C@H](NC(=O)[C@H](CC(C)C)NC(=O)[C@H](CCCCN)NC(=O)[C@H](CCCCN)NC(=O)[C@@H](N)CC(C)C)C(=O)N[C@@H](CCCNC(=N)N)C(=O)N[C@@H]([C@@H](C)CC)C(=O)N[C@@H](CC(C)C)C(=O)N[C@@H](CCCCN)C(=O)N[C@@H](CCCCN)C(=O)N[C@@H](CC(C)C)C(=O)N1)C(N)=O [LI14 (S-S)] (H-LKKLCRILKKLCRI-NH2; disulfide 5-12 (inferred)),Antibacterial activity of LI14 derivates,"S. aureus ATCC 29213; S. aureus 29213, unit not given",4
same,Antibacterial activity of LI14 derivates,"MRSA T144 [1]; MRSA T144, unit not given",4
same,MIC,MRSA T144 [2]; T144,4 µg/mL
same,Antibacterial activity of LI14 derivates,"[3]; E. coli B2, unit not given",4
same,Antibacterial activity of LI14 derivates,"E. coli ATCC 25922; E. coli 25922, unit not given",8
CC[C@H](C)[C@H](NC(=O)[C@H](CCCNC(=N)N)NC(=O)[C@H](CS)NC(=O)[C@H](CC(C)C)NC(=O)[C@H](CCCCN)NC(=O)[C@H](CCCCN)NC(=O)[C@H](CC(C)C)NC(=O)[C@@H](NC(=O)[C@H](CCCNC(=N)N)NC(=O)[C@H](CS)NC(=O)[C@H](CC(C)C)NC(=O)[C@H](CCCCN)NC(=O)[C@H](CCCCN)NC(=O)[C@H](CC(C)C)NC(=O)[C@@H](NC(=O)[C@H](CCCNC(=N)N)NC(=O)[C@H](CS)NC(=O)[C@H](CC(C)C)NC(=O)[C@H](CCCCN)NC(=O)[C@H](CCCCN)NC(=O)[C@@H](N)CC(C)C)[C@@H](C)CC)[C@@H](C)CC)C(N)=O [LI21] (H-LKKLCRILKKLCRILKKLCRI-NH2; N-terminus and C-terminus assumed),MIC,E. coli B2; B2,32 µg/mL
same,MIC,"E. coli B2; B2, 1 h",> 128 µg/mL
same,MIC,"E. coli B2; E. coli B2, MgCl2 10 mM",64 µg/mL
same,MIC,[4],32 µg/mL
same,MIC,S. aureus ATCC 29213; ATCC 29213,32 µg/mL
same,MIC,MRSA T144 [1]; T144,32 µg/mL
same,MIC,[5]; C222 (tet(X6)),32 µg/mL
same,MIC,A. baumannii ATCC 19609; ATCC 19609,32 µg/mL
same,MIC,E. faecium 5F-10; 5F-10,64 µg/mL
same,MIC,[6]; D120 (mcr-8),32 µg/mL
same,MIC,[7]; ATCC 700603,64 µg/mL
same,MIC,P. aeruginosa PA14; PA14,32 µg/mL
same,MIC,MRSA 1518; 1518,32 µg/mL
same,MIC,MRSA 1530; 1530,32 µg/mL
same,MIC,[8]; ATCC 13076,32 µg/mL
same,MIC,"[9]; A4 (VRE, VanA)",32 µg/mL
same,MIC,E. faecalis 1F-1; 1F-1,64 µg/mL
same,MIC,MRSA T144 [2]; T144,64 µg/mL
same,MIC,"MRSA T144 [2]; T144, 1 h",> 128 µg/mL
same,MIC,[3]; B2 (blaNDM-5 + mcr-1),64 µg/mL
same,MIC,E. coli ATCC 25922; ATCC 25922,64 µg/mL
same,MIC,E. coli G92 (mcr-1); G92 (mcr-1),32 µg/mL
same,MIC,E. coli G6 (blaNDM-5); G6 (blaNDM-5),16 µg/mL
same,MIC,E. coli 1F28 (tet(X4)); 1F28 (tet(X4)),32 µg/mL
same,MIC,E. coli CP131 (mcr-3); CP131 (mcr-3),16 µg/mL
same,MIC,E. coli C3 (blaNDM-1); C3 (blaNDM-1),32 µg/mL
same,MIC,E. coli B3-1 (tet(X4)); B3-1 (tet(X4)),32 µg/mL
Colistin,FIC index,"MDR E. coli B2; antibiotic in combination with LI14, checkerboard 8 × 8, 18 h, ≤0.5 = synergy",2
same,MICa of antibiotic,MDR E. coli B2; in the absence of LI14,8 µg/mL
same,MICb of antibiotic,MDR E. coli B2; in the presence of ¼ MIC of LI14,8 µg/mL
same,MIC,"[4]; P. cibarius HNCF44W (blaNDM-1 + tet(X6)), MHB, 16-18 h, 37 °C",>256 µg/mL
same,MIC,"S. aureus ATCC 29213; S. aureus ATCC 29213, MHB, 16-18 h, 37 °C",16 µg/mL
same,MIC,"MRSA T144 [1]; MRSA T144, MHB, 16-18 h, 37 °C",16 µg/mL
same,MIC,"[5]; A. baumannii C222 (tet(X6)), MHB, 16-18 h, 37 °C",<0.125 µg/mL
same,MIC,"A. baumannii ATCC 19609; A. baumannii ATCC 19609, MHB, 16-18 h, 37 °C",0.125 µg/mL
same,MIC,"E. faecium 5F-10; E. faecium 5F-10, MHB, 16-18 h, 37 °C",>64 µg/mL
same,MIC,"[6]; K. pneumoniae D120 (mcr-8), MHB, 16-18 h, 37 °C",4 µg/mL
same,MIC,"[7]; K. pneumoniae ATCC 700603, MHB, 16-18 h, 37 °C",1 µg/mL
same,MIC,S. aureus G16 (RIF^R),1 µg/mL
same,MIC,[10],16 µg/mL
same,MIC,"P. aeruginosa PA14; P. aeruginosa PA14, MHB, 16-18 h, 37 °C",1 µg/mL
same,MIC,"MRSA 1518; MRSA 1518, MHB, 16-18 h, 37 °C",16 µg/mL
same,MIC,"MRSA 1530; MRSA 1530, MHB, 16-18 h, 37 °C",16 µg/mL
same,MIC,"[8]; S. enteritidis ATCC 13076, MHB, 16-18 h, 37 °C",0.25 µg/mL
same,MIC,"[9]; E. faecalis A4 (VRE, VanA), MHB, 16-18 h, 37 °C",64 µg/mL
same,MIC,"E. faecalis 1F-1; E. faecalis 1F-1, MHB, 16-18 h, 37 °C",>64 µg/mL
same,MIC,E. coli DH5α (PUC19),<0.125 µg/mL
same,MIC,[11],2 µg/mL
same,MIC,"[3]; E. coli B2 (blaNDM-5 + mcr-1), MHB, 16-18 h, 37 °C",8 µg/mL
same,MIC,"E. coli ATCC 25922; E. coli ATCC 25922, MHB, 16-18 h, 37 °C",0.5 µg/mL
same,MIC,"E. coli G92 (mcr-1); E. coli G92 (mcr-1), MHB, 16-18 h, 37 °C",4 µg/mL
same,MIC,"E. coli G6 (blaNDM-5); E. coli G6 (blaNDM-5), MHB, 16-18 h, 37 °C",0.5 µg/mL
same,MIC,"E. coli 1F28 (tet(X4)); E. coli 1F28 (tet(X4)), MHB, 16-18 h, 37 °C",0.125 µg/mL
same,MIC,"E. coli CP131 (mcr-3); E. coli CP131 (mcr-3), MHB, 16-18 h, 37 °C",2 µg/mL
same,MIC,"E. coli C3 (blaNDM-1); E. coli C3 (blaNDM-1), MHB, 16-18 h, 37 °C",<0.125 µg/mL
same,MIC,"E. coli B3-1 (tet(X4)); E. coli B3-1 (tet(X4)), MHB, 16-18 h, 37 °C",0.0625 µg/mL
